In patent US12139768B2, “Polymerase chain reaction primers and probes for Mycobacterium tuberculosis” (Rutgers, The State University of New Jersey, priority 2014, dated 2024):
Entries after “also recorded” stand apart in the source; their conditions may differ.

Experiments:
Type in all cases: cell-based, Mycobacterium tuberculosis
[1] = test system: M.tb isolates
[2] = test system: M.tb isolates; remark: listed apart in the source
[3] = test system: M.tb isolates; remark: listed apart in the source

| Compound | Susceptibility in LJ media [1] | Total number of isolates Resistant (LJ) [1] | Level of resistance [2] | Total number of isolates Resistant (MGIT) [3] |
| --- | --- | --- | --- | --- |
| NCC[C@H](O)C(=O)N[C@@H]1C[C@H](N)[C@@H](O[C@H]2O[C@H](CN)[C@@H](O)[C@H](O)[C@H]2O)[C@H](O)[C@H]1O[C@H]1O[C@H](CO)[C@@H](O)[C@H](N)[C@H]1O [AMK, Amikacin] | susceptible | 90 | high level resistance; also recorded: no resistance to AMK |  |
| NC[C@H]1O[C@H](O[C@H]2[C@H](O)[C@@H](O[C@H]3O[C@H](CO)[C@@H](O)[C@H](N)[C@H]3O)[C@H](N)C[C@@H]2N)[C@H](O)[C@@H](O)[C@@H]1O [KAN, Kanamycin] |  | 106 |  | 113 |
